# Earlier results in patent US11576929B2, “Composition for inflammatory gastrointestinal disorders” (SUMITOMO SEIKA CHEMICALS CO., LTD., priority 2018, dated 2023).
# System: colitis in rats
# Conditions: direct inhalation into rats
compound,measurement,value
"[C-]#[O+] [CO (gas), carbon monoxide]",colitis,inhibited colitis
